For 7 molecules, Inhibitory index results are on record in ChEMBL document CHEMBL1135043, “A neural network based virtual screening of cytochrome P450 3A4 inhibitors” (Bioorg Med Chem Lett, 2002).

The series addresses Cytochrome P450 3A4 (Homo sapiens, UniProt P08684). The series is described as follows: Inhibition of cytochrome P450 3A4.

Sequence of Cytochrome P450 3A4 (P08684 whole entry): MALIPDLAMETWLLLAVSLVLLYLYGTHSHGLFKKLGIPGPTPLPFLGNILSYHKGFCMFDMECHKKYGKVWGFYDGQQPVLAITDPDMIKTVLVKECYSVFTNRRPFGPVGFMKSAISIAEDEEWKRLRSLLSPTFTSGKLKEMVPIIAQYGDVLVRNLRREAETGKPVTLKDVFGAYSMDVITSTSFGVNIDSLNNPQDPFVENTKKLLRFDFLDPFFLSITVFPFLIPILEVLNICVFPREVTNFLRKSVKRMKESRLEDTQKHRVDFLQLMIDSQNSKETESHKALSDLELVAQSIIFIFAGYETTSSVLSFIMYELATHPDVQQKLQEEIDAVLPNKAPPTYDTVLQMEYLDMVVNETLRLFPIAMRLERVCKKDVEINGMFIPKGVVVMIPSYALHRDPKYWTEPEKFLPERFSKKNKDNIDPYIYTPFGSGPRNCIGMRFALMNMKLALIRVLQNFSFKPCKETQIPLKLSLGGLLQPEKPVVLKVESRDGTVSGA

As for `CN1CCC(c2c[nH]c3ccc(NC(=O)c4ccc(F)cc4)cc23)CC1`, the Inhibitory index was determined as 0.8.
For `COc1ccccc1CN(CC(Cc1c[nH]c2ccccc12)NC(=O)CN1CCC(N2CCCCC2)CC1)C(C)=O` (configuration not stated) the value was 0.86; for `O[C@@H](COc1cccc2ncccc12)CN1CCN([C@@H]2c3ccccc3[C@@H]3[C@H](c4ccccc42)C3(F)F)CC1`, 0.88.
For `OC(COc1cccc2ncccc12)CN1CCN(C2c3ccccc3C3CC3c3ccccc32)CC1` (configuration not stated) the value was 0.88.
The molecule `COCCCOc1ccnc(C[S+]([O-])c2nc3ccccc3[nH]2)c1C` (configuration not stated) [RABEPRAZOLE] yielded an Inhibitory index of 0.82.
For `CC(C)(C)c1cc(CC2SCNC2=O)cc(C(C)(C)C)c1O` (configuration not stated) [TAZOFELONE] the value was 0.39.
For `CN1[C@@H]2CC[C@H]1C[C@@H](NC(=O)c1cc(Cl)cc3c1OC(C)(C)C3)C2` [ZATOSETRON], the Inhibitory index stood at 0.8.
